Assay results from patent US12642792B2, “CA2-IL15 fusion proteins for tunable regulation” (Obsidian Therapeutics, Inc., priority 2019, dated 2026).

Tests used:
[1] = test system: cord blood-derived NK cells; assay: Expression of constitutive and regulated mbIL15 in cord blood NK cells in response to ACZ (FACS); format: cell-based, human; details: NK cells transduced with IL15-293
Experimental: Cryopreserved mononuclear cell-fractionated cord blood units were obtained from BioBridge Global. Cord blood was diluted 1:1 with phosphate-buffered saline (PBS) and centrifuged over a cushion of Ficoll-Paque+(Sigma Cat. No. GE17-1440-02). The buffy coat comprising mononuclear cells (MNC) was collected, and the MNC were washed and counted. NK cells were isolated from MNC using EasySep Human NK Cell Isolation Kit (Stemcell Technologies Cat. No. 17955). NK cells were counted and checked for purity by FACS using CD56, CD16, CD3 and viability stain.
One day prior to NK cell isolation as described in Example 8, feeder cells (K562 cells expressing 4-1BBL and mbIL-21) were thawed in complete NK cell media (RPMI with Glutamax (ThermoFisher), 10% heat-inactivated fetal bovine serum (Gibco), 1× Penicillin/Streptomycin, 1 mM Sodium Pyruvate, 1×HEPES, 50 μM 2-Mercaptoethanol). On the day of NK cell isolation, 10×10^6 feeder cells were treated with mitomycin C to inhibit their proliferation and washed to remove excess drug. […] NK cell cultures were expanded by replenishing cell cultures with NK cell media and rhIL2 every two days, and analyzed by FACS for NK cell expansion. […]
mbIL15 expression was determined by flow cytometry using two staining reagents: IL15Ra-Fc and an anti-CD56 antibody. mbIL15+ cell frequency was determined relative to the number of NK cells as determined by the anti-CD56 antibody. […]

TIL = assay: Expression of constitutive and regulated mbIL15 in TIL in response to ACZ (flow cytometry); format: cell-based, human; details: TIL transduced with IL15-293
Experimental: HEK293T cells were seeded on collagen coated tissue culture plates until 70% confluent. Cells were transfected with pELNS transfer vector carrying constitutive (IL15-292) or regulated (IL15-293) IL15 constructs, as well as packaging plasmids (pRSV.REV, pMDLg/pRRE and OT-BaEVg-002 (SEQ ID NO: 51)) using Lipofectamine 3000 transfection reagent in Opti-MEM media. Media was replaced 6-8 hrs post-transfection with serum-free media. Supernatants containing virus were harvested 24 hr post-transfection, fresh media was added, and supernatants were harvested again at 48 hr post-transfection. Viral supernatants were filtered to remove debris and concentrated by low speed ultracentrifugation. Virus were resuspended, aliquoted and stored at −80 C freezer.
96-well non-coated tissue culture plates were incubated with 35 μg per mL RetroNectin (Takara Bio) in PBS for 2 h at 37° C. or overnight at 4° C. RetroNectin was removed and the plates washed with PBS. […]
mbIL15 expression was determined by flow cytometry using two staining reagents: fluorochrome-conjugated anti-IL15 antibody as well as a recombinant protein comprised of extracellular domain of IL15Ra fused to human IgG1 Fc domain (IL15Ra-Fc). mbIL15+ cell frequency was determined based on co-staining with anti-IL15 and IL15Ra-Fc (identified as the IL15+IL15Ra-Fc+ double positive population).

Human primary T cells = assay: In vitro antigen-independent expansion of T cells expressing constitutive or ACZ-regulated mbIL15 (cell numbers by flow cytometry); format: cell-based; details: 2 ng/mL exogenous IL15
Experimental: Human primary T cells capable of expressing constitutive mbIL15 or ACZ-regulated mbIL15 were prepared in accordance with methods described in Example 1 above.
After T cell transduction and expansion, CD3/CD28 beads were removed using magnets, cells were washed twice, resuspended in fresh media and counted. Cells were plated in 12-well plates at 1×10^6 in 2 mL. One well of untransduced cells was cultured in the presence of 2 ng/mL IL15 as a control. T cells expressing regulated constructs were cultured in the absence or presence of acetazolamide (ACZ, 30, 10, 3, 1, 0.3 μM). Cell numbers were monitored by flow cytometry every 3-4 days and cells were cultured for 10-12 days. At each time point 100 μL of cells were collected from wells and analyzed by flow cytometry. Cells were split as needed. Cell cultures were maintained in 12-well plates by taking a portion and adding media in a new plate. Volumes for each well were recorded before and after split to calculate final volume in cell number assessment. IL15 or ACZ were replenished at final concentration of the fresh media added during each split.
T cell numbers were determined by flow cytometry. Empty vector (EV) transduced cell numbers decreased to background levels between 3-5 days in the absence of IL15, and cells expanded 11-fold in the presence of 2 ng/mL exogenous IL15 (FIG. 3A). […]

Compound	Effect of ACZ on mbIL15 in transduced NK [1]	Effect of ACZ on mbIL15 in transduced TIL (TIL)	Expansion of empty vector (EV) transduced T cells in the presence of exogenous IL15 (Human primary T cells)
CC(=O)Nc1nnc(S(N)(=O)=O)s1 [ACZ, acetazolamide, reference compound]	induces CA2 DRD-regulated mbIL15 in transduced NK	induces CA2 DRD-regulated mbIL15 in transduced TIL	–
exogenous IL15: exogenous IL15 (2 ng/mL) added to empty vector transduced T cells as control [reference compound]	–	–	11 -fold
